According to patent publication US20260209203A1, “Heterocyclic Compounds as Modulators of S1P5” (Celgene Corporation, priority 2022, published 2026):
pEC50: −log10 of the molar value.

Molecular target: S1P5 (Homo sapiens, UniProt Q9H228)
Test: [35S]-GTPγS functional binding assay on CHO-S1P5 membranes
Assay type: biochemical
Settings: membranes of CHO cells expressing recombinant S1P5; measure of S1P5 agonism
Protocol: CHO cells expressing recombinant S1P5 receptors were cultured in 500 cm^2 culture trays and, once confluent, rinsed and detached with cell-lifting buffer (10 mM HEPES, 154 mM NaCl, 6.85 mM EDTA, pH 7.4). Cells were then pelleted by centrifugation, resuspended, and homogenized in membrane preparation buffer (10 mM HEPES and 10 mM EDTA, pH 7.4) using a Polytron PT 1200E homogenizer (Kinematica, Luzern, Switzerland). Cellular proteins were pelleted by centrifugation at 48,000×g at 4° C. for 30 minutes. The resulting supernatant was discarded, and the pellet was re-suspended again in membrane preparation buffer, homogenized for a second time, and then centrifuged again as described above. The final cellular protein pellet was suspended in ice cold resuspension buffer (10 mM HEPES and 0.1 mM EDTA, pH 7.4), divided into aliquots, and stored at −80° C. until use.
Functional binding assays for [^35S]-GTPγS were performed in 96-well non-binding surface plates with a final volume of 200 μL. The test compounds were serially diluted in DMSO and added to assay plates using a Tecan D300E digital printer with a total volume of 0.4 μL. The control sphingosine-1-phosphate (S1P) was prepared separately by preparing a 400 μM stock solution from a 100 nmol pellet of SIP in 10 mM Na2CO3 with 2% β-cyclodextrin. The serial dilution of S1P was done using complete assay buffer (20 mM HEPES, 10 mM MgCl2, 100 mM NaCl, 1 mM EDTA, 0.1% fatty acid free bovine serum albumin (BSA), and 30 μg/mL saponin, pH 7.4) and transferred to wells already containing 0.4 μL DMSO. All the wells were then loaded to a total volume of 40 μL of complete assay buffer, except the non-specific binding (NSB) wells. For NSB wells, 40 μL/well of 50 μM GTPγS (Sigma Aldrich, cat #G8634, St. Louis, MO) was added to wells containing 0.4 μL of DMSO. The assay was started by the addition of 120 μL/well of CHO—S1P receptor membrane solution containing 40 μg/mL of membrane protein, 16.67 μM guanosine diphosphate (GDP; Sigma Aldrich, cat #G7127, St. Louis, MO), and 2.5 mg/mL of WGA PVT SPA beads in complete buffer. Assay plates were then sealed and incubated at room temperature with gentle agitation for 30 minutes. Next, 40 μL/well of 1 nM of [^35S]-GTPγS (PerkinElmer, cat #NEG030X250UC, Waltham, MA) in basic assay buffer (20 mM HEPES, 10 mM MgCl2, 100 mM NaCl, and 1 mM EDTA, pH7.4) was added to the assay plates to yield a final concentration of 200 pM and the plates were further incubated for 40 minutes at room temperature with gentle agitation. The assay was terminated by centrifugation of the plates at 1000 rpm for 3 minutes using an Eppendorf 5810R centrifuge (Eppendorf, Hamburg, Germany) and G protein bound radioactivity was quantitated using a MicroBeta2 microplate scintillation counter (PerkinElmer, Waltham, MA). As G protein bound radioactivity directly correlates to receptor activation and coupling to the G protein, this assay is a measure of S1P5 agonism.

Sequence of S1P5 (Q9H228 whole entry, species assumed): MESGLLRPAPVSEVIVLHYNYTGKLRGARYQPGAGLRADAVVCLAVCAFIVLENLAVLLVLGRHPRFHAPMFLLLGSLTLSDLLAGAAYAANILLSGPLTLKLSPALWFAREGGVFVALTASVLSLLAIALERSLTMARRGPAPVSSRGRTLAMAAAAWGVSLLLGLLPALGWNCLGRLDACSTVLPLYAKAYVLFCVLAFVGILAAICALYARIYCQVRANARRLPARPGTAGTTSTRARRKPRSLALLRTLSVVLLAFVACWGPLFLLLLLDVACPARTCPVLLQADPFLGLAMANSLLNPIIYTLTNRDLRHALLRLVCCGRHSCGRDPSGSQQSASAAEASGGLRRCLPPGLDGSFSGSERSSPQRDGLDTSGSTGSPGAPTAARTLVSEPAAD

| Structure (SMILES) | pEC50 |
| --- | --- |
| CNC(=O)C1CCN(Cc2c(C)cc(C3CN(c4c(Cl)cccc4Cl)C3)cc2C)CC1 [Compound 1, 1-(4-(1-(2,6-dichlorophenyl)-azetidin-3-yl)-2,6-dimethyl-benzyl)-N-methylpiperidine-4-carboxamide] | 8.00 to 9.00 |
| Cc1cc(C2CN(c3c(Cl)cccc3Cl)C2)cc(C)c1CN1CCC(C(=O)N(C)C)CC1 [Compound 2, 1-(4-(1-(2,6-dichlorophenyl)-azetidin-3-yl)-2,6-dimethyl-benzyl)-N,N-dimethylpiper-idine-4-carboxamide] | 8.00 to 9.00 |
| COCCNC(=O)C1CCN(Cc2c(C)cc(C3CN(c4c(Cl)cccc4Cl)C3)cc2C)CC1 [Compound 3, 1-(4-(1-(2,6-dichlorophenyl)-azetidin-3-yl)-2,6-dimethyl-benzyl)-N-(2-methoxyethyl)-piperidine-4-carboxamide] | 8.00 to 9.00 |
| Cc1cc(C2CN(c3c(Cl)cccc3Cl)C2)cc(C)c1CN1CCC(C(=O)NC2CC2)CC1 [Compound 4, N-cyclopropyl-1-(4-(1-(2,6-dichlorophenyl)-azetidin-3-yl)-2,6-dimethylbenzyl)-piperidine-4-carboxamide] | 7.00 to 8.00 |
| Cc1cc(C2CN(c3c(Cl)cccc3Cl)C2)cc(C)c1CN1CCC(C(=O)NCC2CC2)CC1 [Compound 5, N-(cyclopropylmethyl)-1-(4-(1-(2,6-dichlorophenyl)-azetidin-3-yl)-2,6-dimethyl-benzyl)piperidine-4-carbox-amide] | 7.00 to 8.00 |
| Cc1cc(C2CN(c3c(Cl)cccc3Cl)C2)cc(C)c1CN1CCC(C(=O)NC2CCC2)CC1 [Compound 6, N-cyclobutyl-1-(4-(1-(2,6-dichlorophenyl)azetidin-3-yl)-2,6-dimethylbenzyl)-piperidine-4-carboxamide] | 7.00 to 8.00 |
| Cc1cc(C2CN(c3c(Cl)cccc3Cl)C2)cc(C)c1CN1CCC(C(=O)NC2CCC(O)CC2)CC1 (centres unmarked) [Compound 7, 1-(4-(1-(2,6-dichlorophenyl)-azetidin-3-yl)-2,6-dimethyl-benzyl)-N-(4-hydroxycyclo-hexyl)-piperidine-4-carbox-amide] | 6.00 to 7.00 |
| Cc1cc(C2CN(c3c(Cl)cccc3Cl)C2)cc(C)c1CN1CCC(C(=O)N2CCN(C)CC2)CC1 [Compound 8, (1-(4-(1-(2,6-dichlorophen-yl)azetidin-3-yl)-2,6-dimeth-ylbenzyl)-piperidin-4-yl)(4-methyl-piperazin-1-yl)-methanone] | 6.00 to 7.00 |
| Cc1cc(C2CN(c3c(Cl)cccc3Cl)C2)cc(C)c1CN1CCC(C(=O)N2CCOCC2)CC1 [Compound 9, (1-(4-(1-(2,6-dichlorophen-yl)azetidin-3-yl)-2,6-dimeth-ylbenzyl)-piperidin-4-yl)-(morpholino)methanone] | 6.00 to 7.00 |
| Cc1cc(C2CN(c3c(Cl)cccc3Cl)C2)cc(C)c1CN1CCC(C(=O)NCC(C)C)CC1 [Compound 10, 1-(4-(1-(2,6-dichlorophenyl)-azetidin-3-yl)-2,6-dimethyl-benzyl)-N-isobutylpiperidine-4-carboxamide] | 6.00 to 7.00 |
| Cc1cc(C2CN(c3c(Cl)cccc3Cl)C2)cc(C)c1CN1CCC(C(=O)N(C)CCO)CC1 [Compound 11, 1-(4-(1-(2,6-dichlorophenyl)-azetidin-3-yl)-2,6-dimethyl-benzyl)-N-(2-hydroxyethyl)-N-methylpiperidine-4-carbox-amide] | 6.00 to 7.00 |
| Cc1cc(C2CN(c3c(Cl)cccc3Cl)C2)cc(C)c1CN1CCC(C(=O)N2CCC(O)CC2)CC1 [Compound 12, (1-(4-(1-(2,6-dichlorophenyl)-azetidin-3-yl)-2,6-dimethyl-benzyl)-piperidin-4-yl)(4-hydroxy-piperidin-1-yl)-methanone] | 6.00 to 7.00 |
| Cc1cc(C2CN(c3c(Cl)cccc3Cl)C2)cc(C)c1CN1CCC(C(=O)N(C)CCN(C)C)CC1 [Compound 13, 1-(4-(1-(2,6-dichlorophenyl)-azetidin-3-yl)-2,6-dimethyl-benzyl)-N-(2-(dimethyl-amino)ethyl)-N-methylpiper-idine-4-carboxamide] | 6.00 to 7.00 |
| COC1CCN(C(=O)C2CCN(Cc3c(C)cc(C4CN(c5c(Cl)cccc5Cl)C4)cc3C)CC2)CC1 [Compound 14, (1-(4-(1-(2,6-dichlorophenyl)-azetidin-3-yl)-2,6-dimethyl-benzyl)-piperidin-4-yl)(4-methoxy-piperidin-1-yl)-methanone] | 6.00 to 7.00 |
| Cc1cc(C2CN(c3c(Cl)cccc3Cl)C2)cc(C)c1CN1CCC(C(=O)NC2CCCC2)CC1 [Compound 15, N-cyclopentyl-1-(4-(1-(2,6-dichlorophenyl)-azetidin-3-yl)-2,6-dimethylbenzyl)-piperidine-4-carboxamide] | 5.00 to 6.00 |
| Cc1cc(C2CN(c3c(Cl)cccc3Cl)C2)cc(C)c1CN1CCC(C(=O)N(C)C(C)C)CC1 [Compound 16, 1-(4-(1-(2,6-dichlorophenyl)-azetidin-3-yl)-2,6-dimethyl-benzyl)-N-isopropyl-N-meth-yl-piperidine-4-carboxamide] | 5.00 to 6.00 |
| Cc1cc(C2CN(c3c(Cl)cccc3Cl)C2)cc(C)c1CN1CCC(C(=O)NC2CCCCC2)CC1 [Compound 17, N-cyclohexyl-1-(4-(1-(2,6-dichlorophenyl)azetidin-3-yl)-2,6-dimethylbenzyl)-piperidine-4-carboxamide] | 5.00 to 6.00 |
| Cc1cc(C2CN(c3c(Cl)cccc3Cl)C2)cc(C)c1CN1CCC(C(=O)NCC2CCCCC2)CC1 [Compound 18, N-(cyclohexylmethyl)-1-(4-(1-(2,6-dichlorophenyl)-azetidin-3-yl)-2,6-dimethyl-benzyl)piperidine-4-carbox-amide] | 5.00 to 6.00 |
| Cc1cc(C2CN(c3c(Cl)cccc3Cl)C2)cc(C)c1CN1CCC(C(=O)NCCN2CCCC2)CC1 [Compound 19, 1-(4-(1-(2,6-dichlorophenyl)-azetidin-3-yl)-2,6-dimethyl-benzyl)-N-(2-(pyrrolidin-1-yl)ethyl)-piperidine-4-carbox-amide] | 5.00 to 6.00 |
| Cc1cc(C2CN(c3c(Cl)cccc3Cl)C2)cc(C)c1CN1CCC(C(=O)NC2CCC(N(C)C)CC2)CC1 (centres unmarked) [Compound 20, 1-(4-(1-(2,6-dichlorophenyl)-azetidin-3-yl)-2,6-dimethyl-benzyl)-N-(4-(dimethyl-amino)-cyclohexyl)piper-idine-4-carboxamide] | 5.00 to 6.00 |
| Cc1cc(C2CN(c3c(Cl)cccc3Cl)C2)cc(C)c1CN1CCC(C(=O)NCCC(C)C)CC1 [Compound 21, 1-(4-(1-(2,6-dichlorophenyl)-azetidin-3-yl)-2,6-dimethyl-benzyl)-N-isopentyl-piper-idine-4-carboxamide] | 5.00 to 6.00 |
| Cc1cc(C2CN(c3c(Cl)cccc3Cl)C2)cc(C)c1CN1CCC(C(=O)N2CCC(N(C)C)CC2)CC1 [Compound 22, (1-(4-(1-(2,6-dichlorophenyl)-azetidin-3-yl)-2,6-dimethyl-benzyl)piperidin-4-yl)(4-(dimethylamino)piperidin-1-yl)methanone] | 5.00 to 6.00 |
| Cc1cc(C2CN(c3c(Cl)cccc3Cl)C2)cc(C)c1CN1CCC(C(=O)N(C)CC(C)C)CC1 [Compound 23, 1-(4-(1-(2,6-dichlorophenyl)-azetidin-3-yl)-2,6-dimethyl-benzyl)-N-isobutyl-N-meth-ylpiperidine-4-carboxamide] | 5.00 to 6.00 |
| Cc1cc(C2CN(c3c(Cl)cccc3Cl)C2)cc(C)c1CN1CCC(C(=O)N2CCC(O)C2)CC1 (centres unmarked) [Compound 24, (1-(4-(1-(2,6-dichlorophenyl)-azetidin-3-yl)-2,6-dimethyl-benzyl)-piperidin-4-yl)(3-hydroxypyrrolidin-1-yl)-methanone] | 5.00 to 6.00 |
| Cc1cc(C2CN(c3c(Cl)cccc3Cl)C2)cc(C)c1CN1CCC(C(=O)N(C)C2CC2)CC1 [Compound 25, N-cyclopropyl-1-(4-(1-(2,6-dichlorophenyl)-azetidin-3-yl)-2,6-dimethylbenzyl)-N-methylpiperidine-4-carbox-amide] | 5.00 to 6.00 |
| Cc1cc(C2CN(c3c(Cl)cccc3Cl)C2)cc(C)c1CN1CCC(C(=O)N2CCCCC2)CC1 [Compound 26, (1-(4-(1-(2,6-dichlorophenyl)-azetidin-3-yl)-2,6-dimethyl-benzyl)-piperidin-4-yl)(piper-idin-1-yl)methanone] | 5.00 to 6.00 |
